These results are taken from publication PMC6492070 (Frontiers in Pharmacology, 2019).

Series [1] concerns CYP2A19.
For series [2], the system named is CYP2C.
Series [3] relates to CYP2C. Description: in vitro. To be noted: both, hybrid sow × Piétrain boar, pig.
Series [4] deals with CYP2C. The source holds these as a separate data set.
The subject of series [5] is CYP2E.
Series [6] relates to CYP2A.
For series [7], the system named is CYP1A.
In series [8] the test system is CYP3A.
Series [9] deals with CYP2D.
Series [10] concerns CYP3A. The source holds these as a separate data set.
For series [11] the following is noted: pig, in vivo; cited from earlier work.
For series [12], the system named is IPEC-J2 cells. To be noted: cited from earlier work.
Series [13] deals with CYP2A19. The series is described as follows: in vitro. Particulars: both, hybrid sow × Piétrain boar, pig.
For series [14] the following is noted: both, hybrid sow × Piétrain boars, pig, in vivo.
Series [15] in a line: in vivo. Particulars: both, hybrid sow × Piétrain boars, pig; for k el: Ke.
In series [16] the test system is CYP3A. The series is described as follows: in vitro. To be noted: both, pig.
Series [17] deals with CYP2D. The source holds these as a separate data set.
In series [18] the test system is CYP2D. Description: in vitro. To be noted: both, hybrid sow × Piétrain boar, pig.
[19] abbreviates: both, hybrid sow × Piétrain boar, pig.

Where “and” joins values, the source holds several entries; their conditions need not be identical. Equal entries are not always repeated. Where two headings read alike, the source gives them in different places.

With `CCCC[C@@H](C)[C@@H](OC(=O)C[C@@H](CC(=O)O)C(=O)O)[C@H](C[C@@H](C)C[C@H](O)CCCC[C@@H](O)C[C@H](O)[C@H](C)N)OC(=O)C[C@@H](CC(=O)O)C(=O)O` [FB1, fumonisin B1], in [1], the Inhibition type result is “Full mixed”, the Ki was 2.3 µM, the Residual activity was 22.8 (3.50) % and the α is 14.0 (4.30). For the same molecule, the “Inhibition (efficacy)” value in [1] (microsomes) is on record as 17%.

For the molecule `CCCCNC(=O)NS(=O)(=O)c1ccc(C)cc1` [TB, tolbutamide, reference compound], the Vmax in series [2] was 160 (16.0) pmol/mg protein/min and 132 (17.9) pmol/mg protein/min. Further, the Michaelis-Menten constant (Km) in series [2] (setting [19]) came out at 804 µM; in series [3] (Km), 1070 µM.

`CC(=O)OC[C@]12C[C@H](OC(=O)CC(C)C)C(C)=C[C@H]1O[C@@H]1[C@H](O)[C@@H](OC(C)=O)[C@@]2(C)[C@]12CO2` [T-2, T-2 toxin]: in [4], the “Formed metabolite OH-TB” value is 8.9 ng/mL and 12.9 ng/mL and 13.4 ng/mL; the OH-TB formation rate is 12.4325 pmol/min/mg protein and 18.0201 pmol/min/mg protein and 18.7185 pmol/min/mg protein; the “OH-TB formation rate, PRE” value is 12.0134 pmol/min/mg protein and 12.2928 pmol/min/mg protein; the “OH-TB, pre-incubation (ruwe data)” value was 8.6 and 8.8. Further, the “Residual CYP enzyme activity, TB (CYP2C)” value in series [4] was 46.3% and 62.3%. In addition, in series [5], the “Formed metabolite OH-CZ” value is 25.3 ng/mL and 26.9 ng/mL; the OH-CZ formation rate is 272.688 pmol/min/mg protein and 289.933 pmol/min/mg protein; the “OH-CZ formation rate, PRE” value was 237.12 pmol/min/mg protein and 232.809 pmol/min/mg protein and 217.719 pmol/min/mg protein; the “OH-CZ, pre-incubation (ruwe data)” value is 22 and 21.6 and 20.2. Further, the “Residual CYP enzyme activity, CZ (CYP2E)” value in series [5] is 65.4% and 79.5%. Moreover, in series [6], the “Formed metabolite OH-CM” value is 6.5 ng/mL and 7.1 ng/mL and 6.9 ng/mL; the OH-CM formation rate is 80.1776 pmol/min/mg protein and 87.5786 pmol/min/mg protein and 85.1116 pmol/min/mg protein; the “OH-CM formation rate, PRE” value was 65.3756 pmol/min/mg protein and 55.5076 pmol/min/mg protein and 64.1421 pmol/min/mg protein; the “OH-CM, pre-incubation (ruwe data)” value was 5.3 and 4.5 and 5.2. For the same molecule, the “Residual CYP enzyme activity, CM (CYP2A)” value in series [6] is 72.5% and 99.1%. Also, in series [7], the “Formed metabolite PAR” value is 47.3 ng/mL and 46.6 ng/mL and 46.9 ng/mL; the PAR formation rate is 625.827 pmol/min/mg protein and 616.565 pmol/min/mg protein and 620.535 pmol/min/mg protein; the “PAR formation rate, PRE” value was 523.948 pmol/min/mg protein and 490.871 pmol/min/mg protein and 492.194 pmol/min/mg protein; the “PAR, pre-incubation (ruwe data)” value was 39.6 and 37.1 and 37.2. In series [7], the “Residual CYP enzyme activity, PH (CYP1A)” value is 78.2% and 96.7%. Further, in series [8], the “Formed metabolite OH-MDZ” value is 163 ng/mL and 160.8 ng/mL and 268.8 ng/mL; the OH-MDZ formation rate was 953.858 pmol/min/mg protein and 940.984 pmol/min/mg protein and 1572.99 pmol/min/mg protein; the “OH-MDZ formation rate, PRE” value was 348.773 pmol/min/mg protein and 383.884 pmol/min/mg protein and 308.395 pmol/min/mg protein; the “OH-MDZ, pre-incubation (ruwe data)” value is 59.6 and 65.6 and 52.7. Moreover, in series [9], the DEX formation rate is 838.482 pmol/min/mg protein and 812.838 pmol/min/mg protein and 850.138 pmol/min/mg protein; the “DEX formation rate, PRE” value was 660.528 pmol/min/mg protein and 864.903 pmol/min/mg protein and 852.469 pmol/min/mg protein; the “DEX, pre-incubation (ruwe data)” value was 85 and 111.3 and 109.7; the “Formed metabolite DEX” value was 107.9 ng/mL and 104.6 ng/mL and 109.4 ng/mL. In [9], the “Residual CYP enzyme activity, DXM (CYP2D)” value was 94.2% and 99.1%. Further, in series [2], the Inhibition type result was “Full competitive”, the affinity corresponds to a Ki of 14.8 µM and the Residual activity is recorded as 24.0 (1.38) %. In [10], the Inhibition type entry is recorded as “Full non-competitive” and affinity was put at a Ki of 27 µM. Further, in series [11], the Mean elimination half-life was 0.23 h; the “Parent toxin in plasma and liver” value is on record as “no parent toxin could be detected”. In [12], the “Concentration significantly affecting epithelial integrity” value is 10 ng/mL and 21.43 nM.

For the molecule `O=c1ccc2ccccc2o1` [CM, coumarin, reference compound], the Vmax in [1] is given as 359 (4.1) pmol/mg protein/min. Further, in [13], the Km turned out to be 0.91 µM.

Take `Cc1ncc2n1-c1ccc(Cl)cc1C(c1ccccc1F)=NC2` [midazolam]: in series [10], the Vmax is 2155 (73.8) pmol/mg protein/min and 1899 (88.2) pmol/mg protein/min. Besides, the Km in series [10] (setting [19]) came to 11.3 µM; in [16] (hybrid sow × Piétrain boar, Km) it was 12.3 µM. Further, in [14] (iv, 0.036 mg/kg), the Cl is given as 45.5 (22.75) L/h. Besides, in series [14] (po), the “AUC (0-inf) in the ZEA group, times higher on average” value was “about 2.5 times”. In addition, in series [14] (po), the “Average Ka of the T-2 group, times higher compared to the control group” value was “about 2.5 times”. Moreover, the AUC(0-inf) in series [15] (iv, 0.036 mg/kg) was found to be 11.5 ng·h/mL; in [15] (iv), 18 ng·h/mL. Also, the clearance in [15] (iv, 0.036 mg/kg, Cl) was 767 mL/min. The k el is 0.000231 s⁻¹ in series [15] (iv, 0.036 mg/kg) and 0.000108 s⁻¹ in series [15] (po, 0.15 mg/kg). Also, the MRT is 0.71 h in series [15] (iv, 0.036 mg/kg) and 3.58 h in [15] (po, 0.15 mg/kg). In series [15] (iv, 0.036 mg/kg, Vd), this molecule displayed a Vd of 60.8 L. Moreover, the Tmax is 0.714 ± 0.559 h in [15] (po, 0.15 mg/kg, Mean Tmax after removing the observation); 1.15 h in series [15] (po, 0.15 mg/kg, Tmax); 4 h in series [15] (po, 0.15 mg/kg, Tmax of one pig); 0.67 to 2 h in [15] (po, 0.15 mg/kg, Tmax range); 0.16 to 1.5 h in series [15] (po, 0.15 mg/kg, Tmax range of the other pigs).

On to `C[C@H]1CCCC(=O)CCC/C=C/c2cc(O)cc(O)c2C(=O)O1` [ZEA, zearalenone], for which the figures for the Inhibition type result in series [2], in series [10] and in series [17] were “Partial competitive”, “Partial mixed” and “Full non-competitive”, respectively. Further, the figures for the α in [2] and in [10] were 9.5 (1.05) and 3.8 (1.43), respectively. Further, the Residual activity in series [2] (setting [19]) was 18.7 (0.35) %; in series [10] (both, hybrid sow × Piétrain boars, pig, microsomes), 27.0 (3.16) %. The β in series [10] is 0.26 (0.064). Moreover, the “mean OH-MDZ formation rate as % of [mycotoxine]=0” value in series [10] (both, hybrid sow × Piétrain boar cross, pig) was 26.7981. Further, the “DEX formation rate as % of [mycotoxine]=0” value in series [17] is recorded as 37.1724. For the same molecule, the Ki in series [3] came to 0.54 µM; in [16] (hybrid sow × Piétrain boars, microsomes), 1.1 µM; in [18], 55.4 µM. The activity in series [3] (Residual activity) was below 30%; in series [16] (hybrid sow × Piétrain boars, microsomes, Residual activity), below 30%; in series [18], 32%.

On to `COc1ccc2c(c1)[C@]13CCCC[C@@H]1[C@H](C2)N(C)CC3` [DXM, Dextromethorphan, reference compound], for which the Vmax in series [17] was 1971 (39.7) pmol/mg protein/min. The Km in series [18] is 2 µM.
